Laboratory results: ChEMBL document CHEMBL1201862, “PubChem BioAssay data set” (2004)
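Cells were grown in 96-well plates and exposed to each compound for 48 hours at five concentrations; endpoints were interpolated linearly between bracketing concentrations, or set to the highest concentration if not reached. The concentration for 50% growth inhibition is given as GI50.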 Calls of active or inactive are those of the source. Rule as the data show it: active = GI50 up to about 1.1 µM and inactive = higher.

Key:
Test in all cases: NCI anticancer screen, dose series, 48 h
HT-29 = test system: HT-29
SN12C = test system: SN12C
ACHN = test system: ACHN
NCI-H226 = test system: NCI-H226
U-251 = test system: U-251
SK-MEL-5 = test system: SK-MEL-5
NCI-H460 = test system: NCI-H460
NCI-H23 = test system: NCI-H23
HCT-116 = test system: HCT-116
CCRF-CEM = test system: CCRF-CEM
SNB-75 = test system: SNB-75
M14 = test system: M14
DMS-273 = test system: DMS-273
A549 = test system: A549
DLD-1 = test system: DLD-1
SK-MEL-28 = test system: SK-MEL-28
HL-60 = test system: HL-60
HCC 2998 = test system: HCC 2998

Measured: GI50

CC1CCC2CC(=O)OC([C@@H]3C(=O)O[C@@H](C4=CCCC4)C4C(C)CCC43)C12 (stereo partly specified)
inactive: HT-29 61 µM | SN12C > 100 µM | ACHN 61.4 µM | NCI-H226 > 100 µM | U-251 48.6 µM | SK-MEL-5 97.7 µM | NCI-H460 58.1 µM | NCI-H23 > 100 µM | HCT-116 43.9 µM | CCRF-CEM 34.8 µM | SNB-75 > 100 µM | M14 > 100 µM | DMS-273 > 100 µM | A549 > 100 µM | DLD-1 84.5 µM | SK-MEL-28 > 100 µM | HL-60 23.1 µM | HCC 2998 > 100 µM

CNC(=O)OCc1nc(SSc2nc(COC(=O)NC)c(COC(=O)NC)n2C)n(C)c1COC(=O)NC
inactive: HT-29 > 100 µM | SN12C > 100 µM | ACHN > 100 µM | NCI-H226 > 100 µM | U-251 > 100 µM | SK-MEL-5 > 100 µM | NCI-H460 > 100 µM | NCI-H23 > 100 µM | HCT-116 > 100 µM | CCRF-CEM > 100 µM | SNB-75 > 100 µM | M14 > 100 µM | DMS-273 > 100 µM | A549 > 100 µM | DLD-1 > 100 µM | SK-MEL-28 > 100 µM | HL-60 > 100 µM | HCC 2998 > 100 µM
